Data: patent US9168266B2, “Hybrid diazeniumdiolated compounds, pharmaceutical compositions, and method of treating cancer” (The United States of America, as represented by the …, priority 2011, dated 2015)
pIC50: −log10 of the molar value. Read-outs that look alike come from different tables or passages of the source.

Legend:
PARP enzyme = molecular target: T1, PARP enzyme (Homo sapiens, UniProt P09874); assay: PARP enzyme inhibition, HT Universal Colorimetric PARP assay kit with GSH; format: biochemical; conditions: GSH 1 mM added to activate prodrugs; absorbance 450 nm
T1 construct: purchased Trevigen, Gaithersburg, Md
T1 sequence (P09874 whole entry): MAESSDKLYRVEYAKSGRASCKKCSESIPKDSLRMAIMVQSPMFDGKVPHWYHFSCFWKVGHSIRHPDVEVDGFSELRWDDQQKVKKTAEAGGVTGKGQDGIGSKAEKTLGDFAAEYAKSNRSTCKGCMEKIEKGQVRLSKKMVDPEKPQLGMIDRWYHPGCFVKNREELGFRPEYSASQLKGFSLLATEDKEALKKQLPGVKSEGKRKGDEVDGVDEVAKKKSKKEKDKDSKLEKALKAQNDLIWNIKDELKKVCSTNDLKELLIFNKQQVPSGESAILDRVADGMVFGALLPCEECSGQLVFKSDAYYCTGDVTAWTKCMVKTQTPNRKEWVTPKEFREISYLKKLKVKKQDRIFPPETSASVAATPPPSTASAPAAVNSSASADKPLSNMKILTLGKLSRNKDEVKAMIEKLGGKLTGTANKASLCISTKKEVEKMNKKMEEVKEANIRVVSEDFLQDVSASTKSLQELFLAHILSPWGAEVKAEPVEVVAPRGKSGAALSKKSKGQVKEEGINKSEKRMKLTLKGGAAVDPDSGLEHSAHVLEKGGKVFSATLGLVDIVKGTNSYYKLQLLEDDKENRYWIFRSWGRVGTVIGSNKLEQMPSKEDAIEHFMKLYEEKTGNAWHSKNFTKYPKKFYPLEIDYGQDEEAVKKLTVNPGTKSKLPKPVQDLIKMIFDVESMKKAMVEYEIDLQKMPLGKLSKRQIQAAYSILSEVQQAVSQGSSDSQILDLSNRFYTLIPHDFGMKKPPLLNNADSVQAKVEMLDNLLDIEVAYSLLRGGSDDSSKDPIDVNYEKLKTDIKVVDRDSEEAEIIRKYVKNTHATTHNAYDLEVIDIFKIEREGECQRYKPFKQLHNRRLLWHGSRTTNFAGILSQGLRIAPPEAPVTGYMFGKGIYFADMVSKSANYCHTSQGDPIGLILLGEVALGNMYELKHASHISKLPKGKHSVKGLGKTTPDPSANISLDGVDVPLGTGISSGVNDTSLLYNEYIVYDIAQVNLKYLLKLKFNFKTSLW
Procedure: PARP enzyme inhibition was measured using HT Universal Colorimetric 96-well PARP assay kit (Trevigen, Gaithersburg, Md.), according to manufacturer's protocol with small modifications. GSH (1 mM final concentration) was added to the wells containing inhibitors, to allow activation of the prodrugs. The absorbance at 450 nm was measured.

A549 = assay: MTT cell proliferation assay; format: cell-based; conditions: A549, 72 h
Procedure: (§1) Cell lines were obtained from the American Type Culture Collection (Manassas, Va.) and cultured according to the supplier's protocol. For proliferation assays cells were seeded at 1×10^4 per well (H1693, H322M, H1703, H1944, H1355, H2122, H441, H1568) or 5×10^3 per well (H460, H1792, A549, H2023, H2030, H23) in 96-well plates and allowed to adhere for 24 h. Compounds were prepared as 10 mM stock solutions in DMSO. Increasing drug concentrations in 10 μl of PBS were added to 100 μl of the culture medium for 72 h. MTT assay (Promega, Madison, Wis.) was performed according to the manufacturer's protocol. Each concentration was represented in six repeats, and the screening was performed as at least two independent experiments. IC50 values were calculated by using Sigma Plot software (Systat Software, Inc., San Jose, Calif.).

H1355 = assay: MTT cell proliferation assay; format: cell-based
Procedure: as §1

H1568 = assay: MTT cell proliferation assay; format: cell-based
Procedure: as §1

H1693 = assay: MTT cell proliferation assay; format: cell-based
Procedure: as §1

H1703 = assay: MTT cell proliferation assay; format: cell-based
Procedure: as §1

H1792 = assay: MTT cell proliferation assay; format: cell-based
Procedure: as §1

H1944 = assay: MTT cell proliferation assay; format: cell-based
Procedure: as §1

H2023 = assay: MTT cell proliferation assay; format: cell-based
Procedure: as §1

H2030 = assay: MTT cell proliferation assay; format: cell-based
Procedure: as §1

H2122 = assay: MTT cell proliferation assay; format: cell-based
Procedure: as §1

H23 = assay: MTT cell proliferation assay; format: cell-based
Procedure: as §1

H322M = assay: MTT cell proliferation assay; format: cell-based; conditions: 72 h
Procedure: as §1

H441 = assay: MTT cell proliferation assay; format: cell-based
Procedure: as §1

H460 = assay: MTT cell proliferation assay; format: cell-based, human
Procedure: as §1

[1] = system: H1703 lung adenocarcinoma cells; assay: Intracellular NO release, DAF-FM diacetate fluorescence; format: cell-based; conditions: 10 μM; for intracellular NO release (DAF fluorescence): 30 min, H1703 cells; for cell permeability: inferred from intracellular NO release
Procedure: The intracellular level of nitric oxide after treatment with the compounds JS-59-183 or JS-60-178 was quantified by using the NO-sensitive fluorophore 4-amino-5-methylamino-2,7 difluorofluorescein (DAF-FM) diacetate (Invitrogen, Carlsbad, Calif.). Cells growing on six-well plates were loaded with 2.5 μM DAF-FM diacetate in HBSS at 37° C. and 5% CO2. After 30 min of incubation, the cells were rinsed with HBSS to remove excess probe, and compounds in fresh HBSS was added to the cells at 10 μM final concentration. After 30 min incubation, the fluorescence of the benzotriazole derivative formed on DAF-FM's reaction with aerobic NO was analyzed by using a PerkinElmer Life and Analytical Sciences LS50B luminescence spectrometer with the excitation source at 495 nm and emission at 515 nm. All experiments were performed at least three times, each time at least in triplicate.

[2] = system: H1703 lung adenocarcinoma cells; assay: Intracellular ROS/RNS level, DCF fluorescence; format: cell-based; conditions: 10 μM, 60 min, versus DMSO
Procedure: Intracellular level of reactive oxygen/nitrogen species was quantified by the oxidation of the ROS/RNS-sensitive fluorophore 5-(and-6)-chloromethyl-2′,7′-dichlorodihydrofluorescein diacetate (Invitrogen, Carlsbad, Calif.). Cells growing on six-well plates (6×10^5/well) were loaded with 5 μM 5-(and-6)-chloromethyl-2′,7′-dichlorodihydrofluorescein diacetate in Hanks' balanced salt solution (HBSS) at 37° C. and 5% CO2. After 30 min of incubation, HBSS containing the probe was removed, cells were rinsed with HBSS, and 3 ml of fresh HBSS was added to each well followed by the addition of compounds (10 μM) or DMSO as a control. After 60 min, the cells were collected by scraping in HBSS, and 2′,7′-dichlorofluorescein (DCF) fluorescence was measured by using a PerkinElmer Life and Analytical Sciences (Waltham, Mass.) LS50B luminescence spectrometer with the excitation source at 488 nm and emission at 530 nm.

NSCLC cells [3] = assay: Western blot for cleaved caspase 7 (apoptosis); format: cell-based; conditions: 10 μm, DMSO control
Procedure: (§2) The alkaline comet assay was performed as described (Romanowska et al., Free Radical Biol. Med., 43: 1145-1155 (2007)). Western blot analysis was performed as described previously (Maciag et al., J. Pharmacol. Exp. Ther., 336: 313-320 (2011)). Primary antibodies for cleaved caspase 7 (Cell Signaling Technology, Danvers, Mass.) were used.

NSCLC cell lines = assay: MTT cell proliferation assay, panel summary; format: cell-based; conditions: range over the NSCLC cell lines, 72 h, read-out: IC50 for growth inhibition across NSCLC cell lines
Procedure: as §1

NSCLC cells [4] = assay: Alkaline comet assay (DNA strand breaks); format: cell-based
Procedure: as §2

Structure (SMILES) | pIC50 (PARP enzyme) | TGI (total growth inhibition) (A549) [µM] | TGI (total growth inhibition) (H1355; H1355, 72 h) [µM] | TGI (total growth inhibition) (H1568; H1568, 72 h) [µM] | TGI (total growth inhibition) (H1693; H1693, 72 h) [µM] | TGI (total growth inhibition) (H1703; H1703, 72 h) [µM] | TGI (total growth inhibition) (H1792; H1792, 72 h) [µM] | TGI (total growth inhibition) (H1944; H1944, 72 h) [µM] | TGI (total growth inhibition) (H2023; H2023, 72 h, MTT) [µM] | TGI (total growth inhibition) (H2030; H2030, 72 h) [µM] | TGI (total growth inhibition) (H2122; H2122, 72 h) [µM] | TGI (total growth inhibition) (H23; H23, 72 h, MTT) [µM] | TGI (total growth inhibition) (H322M; H322M, MTT) [µM] | TGI (total growth inhibition) (H441; H441, 72 h) [µM] | TGI (total growth inhibition) (H460; H460, 72 h) [µM] | intracellular NO release (DAF fluorescence) [1] | cell permeability [1] | ROS generation (DCF fluorescence) [2] | apoptotic signal (cleaved caspase 7) (NSCLC cells [3]) | also measured
O=C(c1cccc(Cc2n[nH]c(=O)c3ccccc23)c1)N1CCN([N+]([O-])=NOc2ccc([N+](=O)[O-])cc2[N+](=O)[O-])CC1 [JS-59-183, 2,4-dinitrophenyl 4-[5-[(4-oxo-3H-phthalazin-1-yl)methyl]-benzoyl]piperazine-1-yl-1-ium-1,2-diolate] | 8.08 | 26.0 | 23.0 | 9.0 | 7.3 | 11.2 | 20.0 | 28.0 | 32.5 | 25.0 | 25.0 | 15.2 | 14.0 | 11.7 | 24.8 | decompose within the cell releasing NO | cell permeable | increase in ROS generation | strong apoptotic signal | pIC50 (A549): 4.77; pIC50 (H1355; H1355, 72 h): 4.94; pIC50 (H1568; H1568, 72 h): 5.19; pIC50 (H1693; H1693, 72 h): 5.28; pIC50 (H1703; H1703, 72 h): 5.17; pIC50 (H1792; H1792, 72 h): 4.85; pIC50 (H1944; H1944, 72 h): 4.85; pIC50 (H2023; H2023, 72 h, MTT, read-out: IC50): 4.71; pIC50 (H2030; H2030, 72 h): 4.86; pIC50 (H2122; H2122, 72 h): 4.95; pIC50 (H23; H23, 72 h, MTT, read-out: IC50): 5.12; pIC50 (H322M; H322M, MTT, read-out: IC50): 5.05; pIC50 (H441; H441, 72 h): 5.09; pIC50 (H460; H460, 72 h): 4.86
O=C(c1cc(Cc2n[nH]c(=O)c3ccccc23)ccc1F)N1CCN([N+]([O-])=NOc2ccc([N+](=O)[O-])cc2[N+](=O)[O-])CC1 [JS-60-178, 2,4-dinitrophenyl 4-[2-fluoro-5-[(4-oxo-3H-phthalazin-1-yl)methyl]-benzoyl]piperazine-1-yl-1-ium-1,2-diolate] | 8.54 | 22.0 | 15.0 | 4.0 | 6.6 | 6.7 | 19.0 | 19.0 | 25.0 | 15.2 | 11.0 | 12.3 | 11.6 | 6.2 | 24.0 | decompose within the cell releasing NO | cell permeable | increase in ROS generation | strong apoptotic signal | pIC50 (A549; Homo sapiens): 4.87; pIC50 (H1355; Homo sapiens, NCI-H1355, H1355, 72 h): 5.09; pIC50 (H1568; NCI-H1568, H1568, 72 h): 5.52; pIC50 (H1693; Homo sapiens, NCI-H1693, H1693, 72 h): 5.27; pIC50 (H1703; Homo sapiens, NCI-H1703, H1703, 72 h): 5.37; pIC50 (H1792; Homo sapiens, NCI-H1792, H1792, 72 h): 4.90; pIC50 (H1944; Homo sapiens, NCI-H1944, H1944, 72 h): 4.98; pIC50 (H2023; NCI-H2023, H2023, 72 h, MTT, read-out: IC50): 4.82; pIC50 (H2030; Homo sapiens, NCI-H2030, H2030, 72 h): 5.04; pIC50 (H2122; Homo sapiens, NCI-H2122, H2122, 72 h): 5.12; pIC50 (H23; Homo sapiens, NCI-H23, H23, 72 h, MTT, read-out: IC50): 5.08; pIC50 (H322M; Homo sapiens, NCI-H322M, H322M, MTT, read-out: IC50): 5.10; pIC50 (H441; Homo sapiens, NCI-H441, H441, 72 h): 5.35; pIC50 (H460; Homo sapiens, NCI-H460, H460, 72 h): 4.79; pIC50 (NSCLC cell lines): 4.70 to 5.52; comet signal compared with Olaparib (20 μm) (NSCLC cells [4]; 5 μM, 24 hours): stronger comet signal; DNA strand break damage by Comet assay (NSCLC cells [4]; 24 hours treatment): significant DNA strand break damage
O=C(c1cc(Cc2n[nH]c(=O)c3ccccc23)ccc1F)N1CCN(C(=O)C2CC2)CC1 [Olaparib, olaparib, reference compound] |  | 100 | 113 | 113 | 65 |  | 38 | 88 | 85 | 117 | 140 | 70 | 360 | 84 | 37 |  |  |  | did not trigger apoptosis | pIC50 (H2023; NCI-H2023, 72 h): 4.70; pIC50 (H23; Homo sapiens, NCI-H23, 72 h): 5.00; pIC50 (H322M; Homo sapiens, NCI-H322M): 4.30
